These results are taken from ChEMBL document CHEMBL5291721, “A preclinical secondary pharmacology resource illuminates target-adverse drug reaction associations of marketed drugs” (Nat Commun, 2023).

Experiment [1] concerns the target Bile salt export pump (Homo sapiens, UniProt O95342). The format is functional.
In experiment [2] the target is T1, Adenosine receptor A3 (Homo sapiens, UniProt P0DMS8).
T1 sequence (P0DMS8 whole entry): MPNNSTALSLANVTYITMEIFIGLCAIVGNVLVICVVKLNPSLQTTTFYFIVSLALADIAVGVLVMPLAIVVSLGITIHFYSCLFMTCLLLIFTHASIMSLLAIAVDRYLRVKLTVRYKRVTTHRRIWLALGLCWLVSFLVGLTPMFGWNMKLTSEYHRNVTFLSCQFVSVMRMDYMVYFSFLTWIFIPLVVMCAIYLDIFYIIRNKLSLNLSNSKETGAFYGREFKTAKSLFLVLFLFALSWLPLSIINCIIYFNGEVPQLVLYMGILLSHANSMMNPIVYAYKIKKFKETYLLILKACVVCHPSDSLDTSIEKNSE

For experiment [3], the target named is T2, Alpha-2C adrenergic receptor (Homo sapiens, UniProt P18825).
T2 sequence (P18825 whole entry): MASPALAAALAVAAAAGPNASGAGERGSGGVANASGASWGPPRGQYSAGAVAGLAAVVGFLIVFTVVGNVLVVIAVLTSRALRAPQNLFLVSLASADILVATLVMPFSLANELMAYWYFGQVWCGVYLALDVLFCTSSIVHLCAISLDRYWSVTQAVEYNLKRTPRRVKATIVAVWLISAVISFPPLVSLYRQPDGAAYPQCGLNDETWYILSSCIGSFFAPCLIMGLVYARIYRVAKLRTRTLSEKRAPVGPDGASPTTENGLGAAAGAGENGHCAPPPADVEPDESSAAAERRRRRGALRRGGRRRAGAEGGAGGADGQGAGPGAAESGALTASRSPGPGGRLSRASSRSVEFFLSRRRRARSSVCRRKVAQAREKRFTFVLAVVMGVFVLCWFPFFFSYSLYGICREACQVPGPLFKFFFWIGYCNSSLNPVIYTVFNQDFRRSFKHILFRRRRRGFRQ
The format is functional.

The target of experiment [4] is Beta-1 adrenergic receptor (Homo sapiens, UniProt P08588). The format is functional.
Experiment [5] has as its target Vasopressin V1a receptor (Homo sapiens, UniProt P37288).
The target in experiment [6] is T3, Cholecystokinin receptor type A (Homo sapiens, UniProt P32238).
T3 sequence (P32238 whole entry): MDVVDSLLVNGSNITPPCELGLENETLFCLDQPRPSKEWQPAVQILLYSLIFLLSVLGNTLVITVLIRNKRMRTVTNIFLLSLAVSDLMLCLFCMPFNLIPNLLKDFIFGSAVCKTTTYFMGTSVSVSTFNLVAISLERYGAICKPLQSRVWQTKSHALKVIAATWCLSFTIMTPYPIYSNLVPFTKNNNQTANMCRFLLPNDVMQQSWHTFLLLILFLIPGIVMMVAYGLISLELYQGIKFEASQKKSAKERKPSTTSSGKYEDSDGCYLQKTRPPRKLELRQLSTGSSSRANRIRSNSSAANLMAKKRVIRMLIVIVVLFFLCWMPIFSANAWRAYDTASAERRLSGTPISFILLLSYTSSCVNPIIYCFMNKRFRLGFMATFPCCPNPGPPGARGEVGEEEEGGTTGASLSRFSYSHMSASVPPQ

Experiment [7] has as its target Neuronal acetylcholine receptor subunit alpha-4 (Homo sapiens, UniProt P43681).
Experiment [8] has as its target 5-hydroxytryptamine receptor 2B (Homo sapiens, UniProt P41595). The format is functional, cell-based.
Experiment [9] concerns the target T4, 5-hydroxytryptamine receptor 2C (Homo sapiens, UniProt P28335).
T4 sequence (P28335 whole entry): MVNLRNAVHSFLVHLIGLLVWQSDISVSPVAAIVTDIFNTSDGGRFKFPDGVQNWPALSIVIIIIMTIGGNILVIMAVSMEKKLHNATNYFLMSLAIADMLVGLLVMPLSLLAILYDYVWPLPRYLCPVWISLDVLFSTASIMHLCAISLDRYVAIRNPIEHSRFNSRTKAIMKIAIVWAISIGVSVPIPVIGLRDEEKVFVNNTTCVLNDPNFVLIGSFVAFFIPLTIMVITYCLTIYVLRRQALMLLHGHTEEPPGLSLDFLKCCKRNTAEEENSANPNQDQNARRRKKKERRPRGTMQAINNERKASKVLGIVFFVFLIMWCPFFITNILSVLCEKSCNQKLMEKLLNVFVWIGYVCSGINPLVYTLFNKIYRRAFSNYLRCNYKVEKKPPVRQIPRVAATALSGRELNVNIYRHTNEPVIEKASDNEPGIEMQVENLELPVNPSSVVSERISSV

Experiment [10] deals with Sodium-dependent dopamine transporter (Homo sapiens, UniProt Q01959).
The target in experiment [11] is T5, Amine oxidase [flavin-containing] A (Homo sapiens, UniProt P21397).
T5 sequence (P21397 whole entry): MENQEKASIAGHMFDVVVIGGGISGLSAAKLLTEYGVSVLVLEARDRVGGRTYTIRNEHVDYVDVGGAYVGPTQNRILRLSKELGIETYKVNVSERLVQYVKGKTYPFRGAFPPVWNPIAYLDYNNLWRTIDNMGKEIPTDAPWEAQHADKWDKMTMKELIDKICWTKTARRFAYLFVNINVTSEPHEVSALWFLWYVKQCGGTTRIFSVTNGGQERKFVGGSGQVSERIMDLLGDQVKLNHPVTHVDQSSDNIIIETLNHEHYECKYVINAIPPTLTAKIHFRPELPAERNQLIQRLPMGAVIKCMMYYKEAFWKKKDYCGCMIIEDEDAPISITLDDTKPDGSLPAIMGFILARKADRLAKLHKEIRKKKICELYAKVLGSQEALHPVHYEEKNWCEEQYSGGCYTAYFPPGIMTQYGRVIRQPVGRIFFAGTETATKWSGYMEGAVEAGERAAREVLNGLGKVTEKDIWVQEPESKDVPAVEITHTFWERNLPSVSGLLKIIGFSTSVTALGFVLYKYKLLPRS
The format is functional.

A value given as a limit tells only on which side of the number the result lay.
Note: assay procedure not described here.

Chain of Bile salt export pump (O95342 whole entry): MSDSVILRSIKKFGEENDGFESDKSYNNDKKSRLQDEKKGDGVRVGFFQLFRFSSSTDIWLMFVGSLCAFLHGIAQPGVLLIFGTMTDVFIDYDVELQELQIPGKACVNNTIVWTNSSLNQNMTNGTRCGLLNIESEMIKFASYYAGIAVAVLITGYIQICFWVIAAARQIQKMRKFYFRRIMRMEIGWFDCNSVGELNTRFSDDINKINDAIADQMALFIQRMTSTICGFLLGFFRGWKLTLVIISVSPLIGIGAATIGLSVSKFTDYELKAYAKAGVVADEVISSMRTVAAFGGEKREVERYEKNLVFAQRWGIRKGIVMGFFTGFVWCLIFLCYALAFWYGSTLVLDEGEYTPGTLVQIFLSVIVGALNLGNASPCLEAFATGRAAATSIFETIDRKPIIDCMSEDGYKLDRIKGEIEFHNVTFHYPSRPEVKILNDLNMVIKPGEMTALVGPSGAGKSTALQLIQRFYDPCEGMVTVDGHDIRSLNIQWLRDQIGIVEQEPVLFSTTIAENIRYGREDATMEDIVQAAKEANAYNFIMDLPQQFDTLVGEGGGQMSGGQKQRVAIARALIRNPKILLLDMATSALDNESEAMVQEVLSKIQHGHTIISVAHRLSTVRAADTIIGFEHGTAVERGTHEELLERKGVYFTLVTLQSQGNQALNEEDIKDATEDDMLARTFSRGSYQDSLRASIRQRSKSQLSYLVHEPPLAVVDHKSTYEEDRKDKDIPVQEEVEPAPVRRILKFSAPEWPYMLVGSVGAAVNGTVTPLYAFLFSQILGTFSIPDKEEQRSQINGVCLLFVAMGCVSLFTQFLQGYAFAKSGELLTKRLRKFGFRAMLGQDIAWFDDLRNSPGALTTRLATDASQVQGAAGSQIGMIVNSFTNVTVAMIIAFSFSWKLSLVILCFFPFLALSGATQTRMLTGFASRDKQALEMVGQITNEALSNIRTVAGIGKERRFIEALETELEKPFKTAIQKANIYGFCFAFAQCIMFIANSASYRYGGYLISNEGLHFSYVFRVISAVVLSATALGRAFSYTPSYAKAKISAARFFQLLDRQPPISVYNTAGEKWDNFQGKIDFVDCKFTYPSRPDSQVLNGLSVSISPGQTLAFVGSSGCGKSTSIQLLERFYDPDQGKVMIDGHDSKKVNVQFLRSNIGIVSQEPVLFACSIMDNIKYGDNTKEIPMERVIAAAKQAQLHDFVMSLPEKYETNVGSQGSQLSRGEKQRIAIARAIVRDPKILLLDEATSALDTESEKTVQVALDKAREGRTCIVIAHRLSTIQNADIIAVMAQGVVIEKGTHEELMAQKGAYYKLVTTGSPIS
Chain of 5-hydroxytryptamine receptor 2B (P41595 whole entry): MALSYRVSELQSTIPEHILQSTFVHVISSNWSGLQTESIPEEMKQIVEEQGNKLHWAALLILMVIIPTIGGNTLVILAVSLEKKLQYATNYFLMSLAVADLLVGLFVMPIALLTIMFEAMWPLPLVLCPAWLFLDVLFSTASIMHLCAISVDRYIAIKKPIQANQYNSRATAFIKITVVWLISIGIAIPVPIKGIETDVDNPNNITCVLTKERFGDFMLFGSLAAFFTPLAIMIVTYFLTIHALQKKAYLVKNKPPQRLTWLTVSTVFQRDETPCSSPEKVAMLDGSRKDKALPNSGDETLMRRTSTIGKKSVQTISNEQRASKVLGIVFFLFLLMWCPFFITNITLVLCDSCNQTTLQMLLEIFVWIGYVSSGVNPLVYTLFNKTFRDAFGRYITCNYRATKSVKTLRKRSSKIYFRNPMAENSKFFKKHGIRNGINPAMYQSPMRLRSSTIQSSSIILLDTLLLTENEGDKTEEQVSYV
Chain of Neuronal acetylcholine receptor subunit alpha-4 (P43681 whole entry): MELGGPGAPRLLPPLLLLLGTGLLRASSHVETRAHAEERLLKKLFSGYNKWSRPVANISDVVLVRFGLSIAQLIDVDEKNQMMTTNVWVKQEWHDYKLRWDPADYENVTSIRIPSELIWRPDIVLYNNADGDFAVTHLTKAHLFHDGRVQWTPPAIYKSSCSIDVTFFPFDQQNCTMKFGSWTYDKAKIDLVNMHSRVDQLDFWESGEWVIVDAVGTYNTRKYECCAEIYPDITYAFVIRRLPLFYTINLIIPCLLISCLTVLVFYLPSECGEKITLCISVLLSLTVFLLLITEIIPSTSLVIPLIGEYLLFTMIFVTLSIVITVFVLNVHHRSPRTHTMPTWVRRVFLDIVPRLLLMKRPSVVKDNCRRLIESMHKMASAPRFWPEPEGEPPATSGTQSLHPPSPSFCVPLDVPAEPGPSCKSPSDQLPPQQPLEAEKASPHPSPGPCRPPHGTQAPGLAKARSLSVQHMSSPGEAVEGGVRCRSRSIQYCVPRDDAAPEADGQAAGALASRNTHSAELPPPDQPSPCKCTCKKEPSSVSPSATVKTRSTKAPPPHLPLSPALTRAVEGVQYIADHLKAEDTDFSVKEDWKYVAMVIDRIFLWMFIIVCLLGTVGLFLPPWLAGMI
Chain of Beta-1 adrenergic receptor (P08588 whole entry): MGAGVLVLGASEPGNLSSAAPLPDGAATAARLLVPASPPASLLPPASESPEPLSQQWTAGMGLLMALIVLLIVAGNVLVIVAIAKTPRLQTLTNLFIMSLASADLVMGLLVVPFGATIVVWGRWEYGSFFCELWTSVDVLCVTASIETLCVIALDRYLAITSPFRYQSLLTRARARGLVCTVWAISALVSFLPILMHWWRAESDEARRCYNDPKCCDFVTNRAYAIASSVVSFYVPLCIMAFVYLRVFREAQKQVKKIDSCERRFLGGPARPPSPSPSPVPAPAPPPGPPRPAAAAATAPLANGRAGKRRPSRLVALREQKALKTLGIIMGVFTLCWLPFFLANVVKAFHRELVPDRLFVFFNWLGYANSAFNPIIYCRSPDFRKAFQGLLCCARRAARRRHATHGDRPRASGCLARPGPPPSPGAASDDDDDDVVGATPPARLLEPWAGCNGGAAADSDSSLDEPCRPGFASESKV
Chain of Sodium-dependent dopamine transporter (Q01959 whole entry): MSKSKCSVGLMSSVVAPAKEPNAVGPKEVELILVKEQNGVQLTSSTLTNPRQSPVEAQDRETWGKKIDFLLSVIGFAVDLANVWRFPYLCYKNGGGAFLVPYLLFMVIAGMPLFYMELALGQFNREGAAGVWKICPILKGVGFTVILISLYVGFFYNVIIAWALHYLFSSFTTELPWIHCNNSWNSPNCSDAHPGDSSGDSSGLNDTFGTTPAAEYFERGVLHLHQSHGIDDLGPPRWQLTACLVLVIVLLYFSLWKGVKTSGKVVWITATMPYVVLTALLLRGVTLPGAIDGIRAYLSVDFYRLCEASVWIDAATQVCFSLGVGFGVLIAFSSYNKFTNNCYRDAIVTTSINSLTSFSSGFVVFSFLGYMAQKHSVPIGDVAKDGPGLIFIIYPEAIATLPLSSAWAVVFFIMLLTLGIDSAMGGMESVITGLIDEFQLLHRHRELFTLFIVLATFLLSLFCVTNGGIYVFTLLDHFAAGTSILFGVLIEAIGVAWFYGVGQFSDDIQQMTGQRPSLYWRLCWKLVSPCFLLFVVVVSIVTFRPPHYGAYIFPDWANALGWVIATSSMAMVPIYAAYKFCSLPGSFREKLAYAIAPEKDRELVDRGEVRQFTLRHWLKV
Chain of Vasopressin V1a receptor (P37288 whole entry): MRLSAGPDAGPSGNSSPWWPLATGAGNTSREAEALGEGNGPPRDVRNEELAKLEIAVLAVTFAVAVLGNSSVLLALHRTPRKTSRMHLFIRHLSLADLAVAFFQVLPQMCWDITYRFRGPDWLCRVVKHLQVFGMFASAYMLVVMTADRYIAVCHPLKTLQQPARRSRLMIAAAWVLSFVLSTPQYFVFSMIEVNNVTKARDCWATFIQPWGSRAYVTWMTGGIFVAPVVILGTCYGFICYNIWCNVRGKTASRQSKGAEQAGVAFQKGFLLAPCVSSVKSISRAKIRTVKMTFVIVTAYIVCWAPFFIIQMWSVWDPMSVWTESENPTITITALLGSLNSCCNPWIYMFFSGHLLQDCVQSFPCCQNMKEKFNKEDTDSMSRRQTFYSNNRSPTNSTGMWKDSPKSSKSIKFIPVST

With `Cc1ccc(-c2cc(C(F)(F)F)nn2-c2ccc(S(N)(=O)=O)cc2)cc1` [CELECOXIB], the AC50 in [1] is 34 µM; in experiment [2], 9.14 µM; in experiment [3] it was more than 10 µM; in [4], more than 10 µM; in experiment [5], more than 30 µM; in experiment [6], more than 10 µM. The AC50 in experiment [7] was more than 10 µM; in experiment [8], more than 10 µM; in experiment [9], more than 30 µM; in [10] it was 5.86 µM; in experiment [11], more than 10 µM.

As for `CN1C(=O)CCS(=O)(=O)C1c1ccc(Cl)cc1` (configuration not stated) [CHLORMEZANONE], the AC50 was more than 300 µM in [1]; more than 10 µM in experiment [2]; more than 30 µM in experiment [3]; more than 10 µM in experiment [4]; more than 10 µM in [5]; more than 10 µM in experiment [6]. Further, the AC50 in experiment [7] was more than 10 µM; in experiment [8] it was more than 10 µM; in [9] it was more than 30 µM; in [10] it was more than 10 µM; in experiment [11], more than 30 µM.

`CN(C)CCC(c1ccc(Cl)cc1)c1ccccn1` (configuration not stated) [CHLORPHENIRAMINE]: the AC50 in experiment [1] is more than 300 µM; in experiment [2] it was more than 30 µM; in experiment [3], more than 10 µM; in experiment [4], more than 10 µM; in experiment [5], more than 10 µM; in [6], more than 30 µM. The AC50 in experiment [7] was more than 10 µM; in experiment [8], more than 10 µM; in experiment [9], more than 10 µM; in experiment [10], 1.46 µM; in experiment [11] it was more than 10 µM.

As for `O=C1Nc2ccc(Cl)cc2[C@@](C#CC2CC2)(C(F)(F)F)O1` [EFAVIRENZ], the concentration at half-maximal activity (AC50) was 110 µM in experiment [1]; 6 µM in experiment [2]; more than 30 µM in [3]; 19 µM in experiment [4]; more than 30 µM in experiment [5]; more than 30 µM in experiment [6]. For the same compound, the AC50 in [7] was more than 30 µM; in experiment [8] it was more than 10 µM; in [9], 5.61 µM; in [10], 18 µM; in experiment [11], more than 30 µM.

Consider `O=C(OCC(O)CO)c1ccccc1Nc1ccnc2cc(Cl)ccc12` (configuration not stated) [GLAFENINE], for which the AC50 in [1] was 15 µM; in experiment [2] it was 7.2 µM; in [3], more than 30 µM; in [4] it was more than 30 µM; in experiment [5] it was more than 30 µM; in experiment [6] it was more than 30 µM. The AC50 in [7], in experiment [8], in experiment [9], in experiment [10] and in experiment [11] was more than 30 µM throughout.

For the compound `C[C@]12CCC(=O)C=C1CC[C@@H]1[C@@H]2[C@@H](O)C[C@@]2(C)[C@H]1CC[C@]2(O)C(=O)CO` [HYDROCORTISONE], the AC50 in [1] was more than 300 µM; in experiment [2] it was more than 30 µM; in experiment [3], more than 10 µM; in experiment [4], more than 10 µM; in experiment [5] it was more than 10 µM; in experiment [6], more than 30 µM. In addition, the AC50 in experiment [7] is more than 10 µM; in [8], more than 10 µM; in experiment [9] it was more than 30 µM; in experiment [10], more than 10 µM; in experiment [11] it was more than 10 µM.

Take `CCC(C)n1ncn(-c2ccc(N3CCN(c4ccc(OCC5COC(Cn6cncn6)(c6ccc(Cl)cc6Cl)O5)cc4)CC3)cc2)c1=O` (configuration not stated) [ITRACONAZOLE]: the AC50 in experiment [1] was 0.66 µM; in experiment [2] it was more than 30 µM; in experiment [3], more than 30 µM; in experiment [4], more than 30 µM; in experiment [5] it was more than 30 µM; in experiment [6] it was more than 30 µM. Further, the AC50 in experiment [7], in [8], in experiment [9], in experiment [10] and in experiment [11] was more than 30 µM each time.

As for `c1ccc([C@H]2CN3CCSC3=N2)cc1` [LEVAMISOLE], the AC50 in experiment [1] was more than 300 µM; in experiment [2], more than 30 µM; in [3] it was more than 30 µM; in [4] it was more than 30 µM; in [5], more than 30 µM; in [6], more than 30 µM. In addition, the concentration at half-maximal activity (AC50) in experiment [7], in [8], in experiment [9], in [10] and in experiment [11] was more than 30 µM each time.

With `CN1C(C(=O)Nc2ccccn2)=C(O)c2sc(Cl)cc2S1(=O)=O` [LORNOXICAM], the AC50 in [1] was 32 µM; in [2], more than 30 µM; in experiment [3] it was more than 10 µM; in experiment [4], more than 30 µM; in [5], more than 30 µM; in [6], more than 30 µM. The AC50 in experiment [7] was more than 10 µM; in experiment [8], more than 10 µM; in [9] it was more than 30 µM; in [10], more than 30 µM; in experiment [11], more than 10 µM.

With `Cc1cccc(Nc2ccccc2C(=O)O)c1C` [MEFENAMIC ACID], the AC50 was 150 µM in experiment [1]; more than 10 µM in experiment [2]; more than 10 µM in experiment [3]; more than 10 µM in [4]; more than 10 µM in [5]; more than 10 µM in experiment [6]. For the same compound, the AC50 in [7] was more than 10 µM; in experiment [8] it was more than 10 µM; in [9], more than 30 µM; in [10], more than 10 µM; in experiment [11] it was more than 10 µM.

Turning to `C[C@@H](O)[C@H]1C(=O)N2C(C(=O)O)=C(S[C@@H]3CN[C@H](C(=O)N(C)C)C3)[C@H](C)[C@H]12` [MEROPENEM], the concentration at half-maximal activity (AC50) in experiment [1], in [2], in experiment [3], in experiment [4], in [5] and in experiment [6] was more than 300 µM each time. For the same compound, the AC50 in experiment [7], in [8], in experiment [9], in experiment [10] and in experiment [11] was more than 300 µM throughout.

Regarding `CNC1Cc2ccccc2N(C)c2ccccc21` (configuration not stated) [METAPRAMINE], the AC50 was more than 300 µM in experiment [1]; more than 30 µM in experiment [2]; 26 µM in [3]; more than 30 µM in experiment [4]; more than 30 µM in experiment [5]; more than 30 µM in experiment [6]. Also, the AC50 in experiment [7] is more than 30 µM; in [8], 0.95 µM; in experiment [9] it was 29 µM; in experiment [10], more than 30 µM; in [11] it was more than 30 µM.
